Data as given in patent US4639468A, “Derivatives of glycinamide, their preparation and their use” (priority 1979, dated 1987).
Like-named read-outs stand apart in the source and are kept apart here.

Legend:
[1] = test system: convulsions induced by bicuculline; assay: in vivo; conditions: for bicuculline (score: sum of animals protected by dosages of 10 and 100 mgr/kg): oral, 5 mice each, 3 hours before bicuculline 0.6 mgr/kg i.v., tonic convulsions; for ED50: Mus musculus; for DL50/DE50 (therapeutical index): Table III
Procedure: The anticonvulsive effect was examined for tonic convulsions induced by bicuculline. The compounds of the invention were administrated orally at dosages of 10 and 100 mgr/kg, each to 5 mice, 3 hours before intravenous injection of bicuculline at the dosage of 0.6 mgr/kg. The number of mice protected against tonic convulsions and the number of dead mice were noted.
Amongst the substances according to the invention, 2-n-pentylaminoacetamideand its hydrochloride were more particularly studied. […] The hydrochloride was also administered intravenously. […] Table III also gives the therapeutical index (LD50/ED50).

mouse = assay: passive prevention (memory) in mouse; assay type: in vivo; conditions: 50 mgr/kg intraperitoneally
Excerpt: This product and very likely other compounds of the invention thus improve mnesic retention.

platelet agglutination = assay: inhibition of platelet agglutination in human plasma (turbidimetric method of Born and Cross, Trombofax); assay type: cell-based; conditions: human plasma rich in platelets, preincubated 3 minutes before Trombofax
Procedure: The measure of the inhibition of platelet agglutination is made according to the turbidimetric method of G. V. R. Born and M. J. Cross (J. Physiol. 168, 178, […]). The plasma rich in platelets is preincubated for 3 minutes before introduction of the inductor agent, Trombofax. The inhibion of the maximum amplitude of agglutination is measured by means of Upchurch agglutometer. In this test, compounds 1, 11, 14 and 18 have shown as being active.

in vivo = conditions: mouse, in vivo, po, read-out: DL50 (the source's name)
GAD = GAD activity after oral administration in rat; assay type: in vivo; conditions: 200 mgr/kg per os
[2] = test system: convulsions due to picrotoxine; assay: convulsions due to picrotoxine; conditions: in vivo
Excerpt: (3) 2-n-pentylaminoacetamide hydrochloride has no effect on the convulsions due to picrotoxine.

[3] = test system: accumulation of lactate in the brain; assay: cerebral anoxia caused by decapitation of rat: lactate in the brain; assay type: in vivo; conditions: first seconds of anoxia caused by decapitation
Excerpt: This activity very likely explains itself by an effect on the cerebral energetic metabolism during anoxia. This effect on the cerebral energetic metabolism has been confirmed for 2-n-pentylaminoacetamide hydrochloride in a series of experiments on cerebral anoxia caused by decapitation of rat.

GABA-T = GABA-T activity after oral administration in rat; assay type: in vivo; conditions: 200 mgr/kg per os
[4] = test system: decarboxylase glutamate (GAD); assay: activity of decarboxylase glutamate (GAD) in homogenizates of rat brain; assay type: biochemical; conditions: 10^-4 M
Procedure: The substances of the invention have the property of inhibiting convulsions induced by bicculline in mouse. […] As a matter of fact, bucuculline is a specific antoganist of GABA. Besides, the effect of the products on the activity of the GABA synthesis enzyme, decarboxylase glutamate (GAD), was studied. The activity of the GAD was determined in homogenizates of rat brain according to the method described by L. Parker (Methods in Enzymology, Ed. S. Fleischer, 1974, Vol. XXXII, part V., p. 779). […] In general, the products of the invention […] the activity of the […] (GABA-T), enzyme of GABA catabolism, which results in an increase of the GABA levels at the level of GABA-ergic neurons.

[5] = test system: GABA rate of the black substance; assay: GABA rate of the black substance after oral administration in rat; assay type: in vivo; conditions: 200 mgr/kg per os, 4 hours after treatment
[6] = test system: convulsions induced by strychnine; assay: convulsions induced by strychnine; conditions: in vivo
[7] = test system: convulsions due to leptazol; assay: convulsions due to leptazol in mouse; assay type: in vivo
mice = assay: in vivo; conditions: oral, mice; Table II
[8] = test system: central serotoninergic system; assay: potentiation of the effects of 1-trypthophan in mouse; assay type: in vivo

CCCCCCCCNCC(N)=O [Compound 1, 2-n-octylaminoacetamide]
bicuculline (score: sum of animals protected by dosages of 10 and 100 mgr/kg) [1]: 4
behaviour extinction in passive prevention (mouse): delayed the behaviour extinction
inhibition of platelet agglutination (platelet agglutination): active
LD50 (in vivo; mice, Table II): 2220 mg/kg

CCCCCNCC(N)=O.Cl [Compound 33, 2-n-pentylaminoacetamide hydrochloride]
potentiation of the GAD activity (GAD): 26%
ED50 ([1]; iv): 2.19 mg/kg
ED50 ([1]; iv, 3 h, read-out: DE50): 5.74 mg/kg
ED50 ([1]; po): 5.74 mg/kg
absorption from the intestinal tractus ([1]; mouse, in vivo): excellent absorption from the intestinal tractus
DL50/DE50 (therapeutical index) ([1]; mouse): 390
bicuculline (score: sum of animals protected by dosages of 10 and 100 mgr/kg) [1]: 6
effect on the convulsions due to picrotoxine [2]: no effect
accumulation of lactate in the brain [3]: prevents accumulation of lactate in the brain
effect on GABA-T (GABA-T): without modifying
effect on the activity of GAD [4]: particularly remarkable
LD50 (in vivo; mice, Table II): 2880 mg/kg
LD50 (in vivo; Table III): 2240 mg/kg
increase of GABA rate of the black substance [5]: 38%

CCCCCNCC(N)=O [Compound 3, 2-n-pentylaminoacetamide]
activity against convulsions induced by strychnine [6]: inactive
ED50 ([1]; iv, 3 h, read-out: DE50): 11.2 mg/kg
ED50 ([1]; po): 11.2 mg/kg
antagonist action against convulsions due to bicuculline on increase of the bicuculline doses ([1]; increased bicuculline doses): may be overcome by an increase of the bicuculline doses
competition with bicuculline ([1]; mouse, in vivo): competes with bicuculline
DL50/DE50 (therapeutical index) ([1]; mouse): 172
bicuculline (score: sum of animals protected by dosages of 10 and 100 mgr/kg) [1]: 7
effect on the activity of GAD [4]: particularly remarkable
inhibition of convulsions due to leptazol [7]: only slightly inhibits
DL50 (mice): 1925 mg/kg
effect on the effects of 1-trypthophan [8]: potentiates the effects of 1-trypthophan
